How the values were obtained:
[1] = tested on: soybean cultivars L2711R2X, L3385R2; assay: Field 2012: 2,4-D Low Vol 4 + crop oil drizzled onto soil at R1 stage, Laurel, Iowa (Table 2b); format: in vivo
Procedure: Plants were treated by drizzling via low pressure spraying the 2,4-D solution onto the soil along each side of the rows when plants are at the R1 stage of growth. The date of planting was May 15, 2012 and the date of harvest was Oct. 2, 2012 at plots in Alexander, Iowa (Table 2a) and Laurel, Iowa (Table 2b). Plants were grown from Roundup Ready seed and were sprayed with glyphosate for weed control. Plants were treated with between 1X and 5.5X of 2,4-D solution mixed with crop oil at 15.3 ounces of 2,4-D Low Vol 4 plus 0.32 ounces crop oil per gallon, where 1X is equivalent to approximately 0.45 pounds acid equivalent of 2,4-D. Two repetitions were performed at different plots. […] The moisture percentages were used in correcting each yield to a 13% moisture basis.

[2] = tested on: soybean variety L2438R2; assay: Field: seed treatment with 2,4-D mixture 0.01-0.09 ounces per 100 pounds of seed, Laurel, Iowa (Table 7); format: in vivo
Procedure: Previously untreated soybean seeds were treated with between 0.01 ounces to 0.09 ounces of 2,4-D solution per 100 pounds of seed, in which 0.01 ounces is equivalent to 0.0002968 pounds acid equivalent of 2,4-D. The seed variety was L2438R2 and seeds were planted in Laurel, Iowa with a row width of 50 inches. Four rows were planted and the middle two rows were harvested.

[3] = 1.0X Rate, L2711R2X, 1X~0.45 lb a.e.
[4] = 1.0X Rate, L3385R2, 1X~0.45 lb a.e.
[5] = 1.5X Rate, L2711R2X, 1X~0.45 lb a.e.
[6] = 1.5X Rate, L3385R2, 1X~0.45 lb a.e.
[7] = 2.0X Rate, L2711R2X, 1X~0.45 lb a.e.
[8] = 2.0X Rate, L3385R2, 1X~0.45 lb a.e.
[9] = 2.5X Rate, L2711R2X, 1X~0.45 lb a.e.
[10] = 2.5X Rate, L3385R2, 1X~0.45 lb a.e.
[11] = 3.0X Rate, L2711R2X, 1X~0.45 lb a.e.
[12] = 3.0X Rate, L3385R2, 1X~0.45 lb a.e.
[13] = 3.5X Rate, L2711R2X, 1X~0.45 lb a.e.
[14] = 3.5X Rate, L3385R2, 1X~0.45 lb a.e.
[15] = 4.0X Rate, L2711R2X, 1X~0.45 lb a.e.
[16] = 4.0X Rate, L3385R2, 1X~0.45 lb a.e.
[17] = 4.5X Rate, L2711R2X, 1X~0.45 lb a.e.
[18] = 4.5X Rate, L3385R2, 1X~0.45 lb a.e.
[19] = 5.0X Rate, L2711R2X, 1X~0.45 lb a.e.
[20] = 5.0X Rate, L3385R2, 1X~0.45 lb a.e.
[21] = 5.5X Rate, L2711R2X, 1X~0.45 lb a.e.
[22] = 5.5X Rate, L3385R2, 1X~0.45 lb a.e.
[23] = Average over 1.0X-3.0X Rates, L2711R2X
[24] = Average over 1.0X-3.0X Rates, L3385R2
[25] = Average over 1.0X-5.5X Rates, L2711R2X
[26] = Average over 1.0X-5.5X Rates, L3385R2
[27] = Overall location average, all rates, both cultivars
[28] = 0.01 ounces per 100 pounds of seed
[29] = 0.02 ounces per 100 pounds of seed
[30] = 0.03 ounces per 100 pounds of seed
[31] = 0.04 ounces per 100 pounds of seed
[32] = 0.05 ounces per 100 pounds of seed
[33] = 0.06 ounces per 100 pounds of seed
[34] = 0.07 ounces per 100 pounds of seed
[35] = 0.08 ounces per 100 pounds of seed
[36] = 0.09 ounces per 100 pounds of seed

O=C(O)COc1ccc(Cl)cc1Cl [2,4-D, 2,4-Dichlorophenoxyacetic acid]
Average Yield [1, 3]: 64.93 Bu/A
Repetition 1 Weight [1, 3]: 5.6 Lbs
Repetition 1 Yield [1, 3]: 62.69 Bu/A
Repetition 2 Weight [1, 3]: 6.0 Lbs
Repetition 2 Yield [1, 3]: 67.16 Bu/A
Average Yield [1, 4]: 72.50 Bu/A
Repetition 1 Weight [1, 4]: 6.7 Lbs
Repetition 1 Yield [1, 4]: 73.40 Bu/A
Repetition 2 Weight [1, 4]: 6.5 Lbs
Repetition 2 Yield [1, 4]: 71.60 Bu/A
Average Yield [1, 5]: 67.20 Bu/A
Repetition 1 Weight [1, 5]: 6.6 Lbs
Repetition 1 Yield [1, 5]: 73.88 Bu/A
Repetition 2 Weight [1, 5]: 5.4 Lbs
Repetition 2 Yield [1, 5]: 60.51 Bu/A
Average Yield [1, 6]: 75.70 Bu/A
Repetition 1 Weight [1, 6]: 6.8 Lbs
Repetition 1 Yield [1, 6]: 74.34 Bu/A
Repetition 2 Weight [1, 6]: 6.9 Lbs
Repetition 2 Yield [1, 6]: 77.07 Bu/A
Average Yield [1, 7]: 63.41 Bu/A
Repetition 1 Weight [1, 7]: 5.7 Lbs
Repetition 1 Yield [1, 7]: 64.01 Bu/A
Repetition 2 Weight [1, 7]: 5.6 Lbs
Repetition 2 Yield [1, 7]: 62.82 Bu/A
Average Yield [1, 8]: 70.93 Bu/A
Repetition 1 Weight [1, 8]: 6.3 Lbs
Repetition 1 Yield [1, 8]: 70.22 Bu/A
Repetition 2 Weight [1, 8]: 6.4 Lbs
Repetition 2 Yield [1, 8]: 71.64 Bu/A
Average Yield [1, 9]: 63.35 Bu/A
Repetition 1 Weight [1, 9]: 5.7 Lbs
Repetition 1 Yield [1, 9]: 63.87 Bu/A
Repetition 2 Weight [1, 9]: 5.6 Lbs
Repetition 2 Yield [1, 9]: 62.82 Bu/A
Average Yield [1, 10]: 71.91 Bu/A
Repetition 1 Weight [1, 10]: 6.3 Lbs
Repetition 1 Yield [1, 10]: 70.60 Bu/A
Repetition 2 Weight [1, 10]: 6.5 Lbs
Repetition 2 Yield [1, 10]: 73.23 Bu/A
Average Yield [1, 11]: 63.84 Bu/A
Repetition 1 Weight [1, 11]: 5.5 Lbs
Repetition 1 Yield [1, 11]: 61.50 Bu/A
Repetition 2 Weight [1, 11]: 5.9 Lbs
Repetition 2 Yield [1, 11]: 66.19 Bu/A
Average Yield [1, 12]: 71.91 Bu/A
Repetition 1 Weight [1, 12]: 6.6 Lbs
Repetition 1 Yield [1, 12]: 74.12 Bu/A
Repetition 2 Weight [1, 12]: 6.2 Lbs
Repetition 2 Yield [1, 12]: 69.70 Bu/A
Repetition 1 Weight [1, 13]: 5.7 Lbs
Repetition 1 Yield [1, 13]: 63.74 Bu/A
Average Yield ([1]; 3.5X Rate, L2711R2X, 1X~0.45 lb a.e., repetition 1 only): 63.74 Bu/A
Repetition 1 Weight [1, 14]: 6.3 Lbs
Repetition 1 Yield [1, 14]: 68.94 Bu/A
Average Yield ([1]; 3.5X Rate, L3385R2, 1X~0.45 lb a.e., repetition 1 only): 68.94 Bu/A
Repetition 1 Weight [1, 15]: 6.1 Lbs
Repetition 1 Yield [1, 15]: 68.28 Bu/A
Average Yield ([1]; 4.0X Rate, L2711R2X, 1X~0.45 lb a.e., repetition 1 only): 68.28 Bu/A
Repetition 1 Weight [1, 16]: 6.7 Lbs
Repetition 1 Yield [1, 16]: 74.76 Bu/A
Average Yield ([1]; 4.0X Rate, L3385R2, 1X~0.45 lb a.e., repetition 1 only): 74.76 Bu/A
Repetition 1 Weight [1, 17]: 6.3 Lbs
Repetition 1 Yield [1, 17]: 70.60 Bu/A
Average Yield ([1]; 4.5X Rate, L2711R2X, 1X~0.45 lb a.e., repetition 1 only): 70.60 Bu/A
Repetition 1 Weight [1, 18]: 6.6 Lbs
Repetition 1 Yield [1, 18]: 72.78 Bu/A
Average Yield ([1]; 4.5X Rate, L3385R2, 1X~0.45 lb a.e., repetition 1 only): 72.78 Bu/A
Repetition 1 Weight [1, 19]: 5.9 Lbs
Repetition 1 Yield [1, 19]: 66.11 Bu/A
Average Yield ([1]; 5.0X Rate, L2711R2X, 1X~0.45 lb a.e., repetition 1 only): 66.11 Bu/A
Repetition 1 Weight [1, 20]: 6.6 Lbs
Repetition 1 Yield [1, 20]: 74.12 Bu/A
Average Yield ([1]; 5.0X Rate, L3385R2, 1X~0.45 lb a.e., repetition 1 only): 74.12 Bu/A
Repetition 1 Weight [1, 21]: 5.4 Lbs
Repetition 1 Yield [1, 21]: 60.45 Bu/A
Average Yield ([1]; 5.5X Rate, L2711R2X, 1X~0.45 lb a.e., repetition 1 only): 60.45 Bu/A
Repetition 1 Weight [1, 22]: 6.3 Lbs
Repetition 1 Yield [1, 22]: 70.37 Bu/A
Average Yield ([1]; 5.5X Rate, L3385R2, 1X~0.45 lb a.e., repetition 1 only): 70.37 Bu/A
Repetition 2 Weight [1, 23]: 5.7 Lbs
Repetition 2 Yield [1, 23]: 63.90 Bu/A
Repetition 2 Weight [1, 24]: 6.5 Lbs
Repetition 2 Yield [1, 24]: 72.65 Bu/A
Average Yield [1, 25]: 65.19 Bu/A
Repetition 1 Weight [1, 25]: 5.9 Lbs
Repetition 1 Yield [1, 25]: 65.51 Bu/A
Average Yield [1, 26]: 72.39 Bu/A
Repetition 1 Weight [1, 26]: 6.5 Lbs
Repetition 1 Yield [1, 26]: 72.36 Bu/A
Average Yield [1, 27]: 68.79 Bu/A
Repetition 1 Weight [1, 27]: 6.2 Lbs
Repetition 1 Yield [1, 27]: 68.94 Bu/A
Repetition 2 Weight [1, 27]: 6.1 Lbs
Repetition 2 Yield [1, 27]: 68.27 Bu/A
Repetition 1 Total weight [2, 28]: 14.80 pounds
Repetition 1 Yield [2, 28]: 46.49 Bu/acre
Repetition 2 Total weight [2, 28]: 15.60 pounds
Repetition 2 Yield [2, 28]: 48.92 Bu/acre
Total yield (total average yield) [2, 28]: 47.70 Bu/acre
Repetition 1 Total weight [2, 29]: 15.90 pounds
Repetition 1 Yield [2, 29]: 50.21 Bu/acre
Repetition 2 Total weight [2, 29]: 16.10 pounds
Repetition 2 Yield [2, 29]: 50.65 Bu/acre
Total yield (total average yield) [2, 29]: 50.43 Bu/acre
Repetition 1 Total weight [2, 30]: 15.60 pounds
Repetition 1 Yield [2, 30]: 49.26 Bu/acre
Repetition 2 Total weight [2, 30]: 14.90 pounds
Repetition 2 Yield [2, 30]: 47.12 Bu/acre
Total yield (total average yield) [2, 30]: 48.19 Bu/acre
Repetition 1 Total weight [2, 31]: 16.40 pounds
Repetition 1 Yield [2, 31]: 49.46 Bu/acre
Repetition 2 Total weight [2, 31]: 15.90 pounds
Repetition 2 Yield [2, 31]: 47.45 Bu/acre
Total yield (total average yield) [2, 31]: 48.45 Bu/acre
Repetition 1 Total weight [2, 32]: 16.10 pounds
Repetition 1 Yield [2, 32]: 47.48 Bu/acre
Repetition 2 Total weight [2, 32]: 16.00 pounds
Repetition 2 Yield [2, 32]: 49.21 Bu/acre
Total yield (total average yield) [2, 32]: 48.35 Bu/acre
Repetition 1 Total weight [2, 33]: 15.50 pounds
Repetition 1 Yield [2, 33]: 46.85 Bu/acre
Repetition 2 Total weight [2, 33]: 14.90 pounds
Repetition 2 Yield [2, 33]: 45.78 Bu/acre
Total yield (total average yield) [2, 33]: 46.31 Bu/acre
Repetition 1 Total weight [2, 34]: 14.50 pounds
Repetition 1 Yield [2, 34]: 44.99 Bu/acre
Repetition 2 Total weight [2, 34]: 14.90 pounds
Repetition 2 Yield [2, 34]: 46.13 Bu/acre
Total yield (total average yield) [2, 34]: 45.56 Bu/acre
Repetition 1 Total weight [2, 35]: 13.40 pounds
Repetition 1 Yield [2, 35]: 41.93 Bu/acre
Repetition 2 Total weight [2, 35]: 14.30 pounds
Repetition 2 Yield [2, 35]: 44.99 Bu/acre
Total yield (total average yield) [2, 35]: 43.46 Bu/acre
Repetition 1 Total weight [2, 36]: 14.90 pounds
Repetition 1 Yield [2, 36]: 46.40 Bu/acre
Repetition 2 Total weight [2, 36]: 14.00 pounds
Repetition 2 Yield [2, 36]: 43.83 Bu/acre
Total yield (total average yield) [2, 36]: 45.12 Bu/acre
Repetition 1 Total weight ([2]; Average over 0.01-0.09 ounces): 15.23 pounds
Repetition 1 Yield ([2]; Average over 0.01-0.09 ounces): 47.01 Bu/acre
Repetition 2 Total weight ([2]; Average over 0.01-0.09 ounces): 15.18 pounds
Repetition 2 Yield ([2]; Average over 0.01-0.09 ounces): 47.12 Bu/acre
Total yield (total average yield) ([2]; Average over 0.01-0.09 ounces): 47.06 Bu/acre
